Activity and inhibition data for five molecules are collected here from ChEMBL document CHEMBL1123746, “Synthesis of 5-beta-D-ribofuranosylnicotinamide and its N-methyl derivative. The isosteric and isoelectronic analogues of nicotinamide nucleoside” (1987).

The source made the active and inactive calls. The rule behind the calls is not given here.

The nature of experiment [1]: Compound tested for the inhibition of IMP-dehydrogenase causing a profound depletion of GMP anf accumulation of IMP; Active. Format: functional.
Experiment [2] in a line: Compound tested for the inhibition of ADP-ribosylation in protein synthesis; Inactive. Type of experiment: functional.
Another experiment relates to CCRF-CEM. Briefly: In vitro inhibitory activity against the growth of CCRF-CEM tumor cells at a concentration of 13.0 ug/mL; Inactive. As to conditions: Homo sapiens. Format: functional, cell-based.
In the next experiment the test system is HL-60. Nature of the experiment: In vitro inhibitory activity against the growth of HL-60 tumor cells at a concentration of 24.0 ug/mL; Inactive. Format: functional, cell-based. As to conditions: Homo sapiens.
Another experiment concerns P815. Nature of the experiment: In vitro inhibitory activity against the growth of P-815 tumor cells at a concentration of 16.0 ug/mL; Inactive. Format: functional, cell-based. As to conditions: Mus musculus.
The subject of a further experiment is MOLT-3. Nature of the experiment: In vitro inhibitory activity against the growth of F-Molt-3 tumor cells at a concentration of 15.0 ug/mL; Inactive. As to conditions: Homo sapiens. Format: functional, cell-based.

Regarding `NC(=O)c1csc([C@@H]2O[C@H](CO)[C@@H](O)[C@H]2O)n1`, the result in experiment [1] was Active.

Take `NC(=O)c1csc([C@H]2O[C@@H](COP(=O)(O)OP(=O)(O)OC[C@H]3O[C@@H](n4cnc5c(N)ncnc54)[C@H](O)[C@@H]3O)[C@H](O)[C@@H]2O)n1`: in experiment [1], the result was Active.

For the molecule `C[n+]1cc(C(N)=O)cc([C@@H]2O[C@H](COP(=O)([O-])OP(=O)(O)OC[C@@H]3O[C@H](n4cnc5c(N)ncnc54)[C@@H](O)[C@H]3O)[C@@H](O)[C@H]2O)c1`, the result in experiment [2] was inactive.

Regarding `NC(=O)c1cncc([C@@H]2O[C@H](COP(=O)(O)OP(=O)(O)OC[C@@H]3O[C@H](n4cnc5c(N)ncnc54)[C@@H](O)[C@H]3O)[C@@H](O)[C@H]2O)c1`, the outcome in experiment [2] was inactive.

With `C[n+]1cc(C(N)=O)cc(C2O[C@H](CO)[C@@H](O)[C@H]2O)c1` (single isomer, unassigned), the inhibition result in the experiment with CCRF-CEM, in the experiment on HL-60, in the experiment on P815 and in the experiment on MOLT-3 was “inactive” in each case.
